Measurements taken from patent US20210106566A1, “PHARMACEUTICAL COMPOSITION FOR TREATING AND/OR PREVENTING PERIPHERAL NEUROPATHY OR SPINAL CORD INJURY” (NATIONAL UNIVERSITY CORPORATION NAGOYA UNIVERSITY, priority 2015, published 2021).

How the values were obtained:
[1] = tested on: mouse sciatic nerve autologous transplantation model; test: Mouse sciatic nerve autologous transplantation model: number and area of myelinated axons; format: in vivo; details: 30 mg/kg/day to the stomach, one week after surgery, section 0.7 mm distal to the distal transection site
Text: Adult male C57BL/6J mice (8 weeks old; 19.5-22.0 g) were purchased from Charles River. The mice were anesthetized with isoflurane and underwent gluteal muscle incision under a sterile condition to expose the sciatic nerve in the left leg. The sciatic nerve was cut at the following two sites (1) and (2): (1) the site 3 mm distal to the first bifurcation of biceps femoris (hereinafter referred to as proximal transection site) (2) the site 3 mm distal to the proximal transection site (hereinafter referred to as distal transection site) The excised nerve segment with a length of 3 mm was confirmed to be completely cut at the two sites. The perineurium was sutured with nylon thread (10-0 black) at the proximal transection site and the distal transection site under a microscope. The remaining thread was used as a marker for finding the nerve transection site in the sacrifice of the mice. In order to reduce DMSO toxicity, a solution of 60 mg/mL zonisamide in 100% DMSO was prepared and the solution was diluted in olive oil to give a solution of 3 mg/mL zonisamide in 5% DMSO. […] Myelin sheath formation in the sciatic nerve was analyzed in six mice in each group. […] The number and area of myelinated axons in the sciatic nerve were manually measured using ImageJ software in a blinded fashion.

Chrne, Colq, and Rapsn = test: Mouse sciatic nerve autologous transplantation model: mRNA in gastrocnemius muscle; format: in vivo; details: 8 weeks after surgery, 30 mg/kg/day
Text: Adult male C57BL/6J mice (8 weeks old; 19.5-22.0 g) were purchased from Charles River. The mice were anesthetized with isoflurane and underwent gluteal muscle incision under a sterile condition to expose the sciatic nerve in the left leg. The sciatic nerve was cut at the following two sites (1) and (2): (1) the site 3 mm distal to the first bifurcation of biceps femoris (hereinafter referred to as proximal transection site) (2) the site 3 mm distal to the proximal transection site (hereinafter referred to as distal transection site) The excised nerve segment with a length of 3 mm was confirmed to be completely cut at the two sites. The perineurium was sutured with nylon thread (10-0 black) at the proximal transection site and the distal transection site under a microscope. The remaining thread was used as a marker for finding the nerve transection site in the sacrifice of the mice. In order to reduce DMSO toxicity, a solution of 60 mg/mL zonisamide in 100% DMSO was prepared and the solution was diluted in olive oil to give a solution of 3 mg/mL zonisamide in 5% DMSO. The control solution (5% DMSO) or zonisamide (3 mg/mL×about 0.2 mL) at 30 mg/kg/day was administered to the stomach using a disposable probe needle (flexible type, Fuchigami) once a day for 1 to 8 weeks from the end of surgery until sacrifice. Myelin sheath formation in the sciatic nerve was analyzed in six mice in each group. One week after the sciatic nerve autologous transplantation, the sciatic nerve was transected at “the proximal transection site” and “the site 3 mm distal to the distal transection site” to excise a nerve segment with a length of 6 mm. […] The number and area of myelinated axons in the sciatic nerve were manually measured using ImageJ software in a blinded fashion. […] The mRNA expression levels of Bdnf, Ngf, Ntf4, Ntrk1, Ntrk2, Map2, Mapt, Gap43, Chrne, Colq, and Rapsn were quantified in a manner similar to Example 5.

primary motor neurons = test: Scratch assay of neurite regeneration; format: cell-based, mouse; details: 0, 1, 10, or 20 μmol/L, 48 hours after scratch
Method: Primary cultured motor neurons were seeded in a Nun Lab-Tek Chamber Slide (Thermo Scientific) coated with poly-L-lysine at 8.0×10^4 cells/cm^2×0.7 cm^2/well and then cultured in Sumilon neuron culture medium for 48 hours. Neurites of primary motor neurons were linearly scratched off with a 200 μL sterile pipette tip. The cells were immediately rinsed with PBS and cultured in Sumilon neuron culture medium containing 0, 1, 10, or 20 μmol/L zonisamide for 48 hours. The cells were fixed in 4% paraformaldehyde and immunostained with neuron-specific β-III tubulin monoclonal antibody (1:1000, MAB1195, R&D systems) and Alexa Fluor 488-conjugated goat anti-mouse secondary antibody (Life Technologies). Images of the scratched areas were acquired on a microscope (Olympus LX71). The neurite lengths of primary motor neurons in the scratched areas were automatically measured with MetaMorph software (Universal Imaging).

NS(=O)(=O)Cc1noc2ccccc12 [Zonisamide, 3-sulfamoylmethyl-1,2-benzisoxazole]
area of axons, increase compared to the zonisamide non-administration group [1]: 3.9 fold
number of axons [1]: unchanged
expression level of Chrne (Chrne, Colq, and Rapsn): increased
expression level of Colq (Chrne, Colq, and Rapsn): increased
expression level of Rapsn (Chrne, Colq, and Rapsn): increased
neurite length in the scratch assay (primary motor neurons): dose-dependent increase
